Results from PMC9265957, “Bioavailability of Rosehip (Rosa canina L.) Infusion Phenolics Prepared by Thermal, Pulsed Electric Field and High Pressure Processing” (Foods, 2022).
Read-outs that look alike come from different tables or passages of the source.

What was measured:
[1] = design: method as in PMID 31100382; conditions: rats; oral administration; after one hour; cited from earlier work
[2] = design: method as in PMID 31100382; conditions: ex vivo; after one hour; cited from earlier work
[3] = design: method as in earlier work; conditions: mice, cited from earlier work
[4] = design: method as in doi:10.1111/jfpp.16096; conditions: rosehip infusions by TT, HPP and PEF, depending on the treatment; cited from earlier work
[5] = test system: Caco-2 cells; experiment: Transepithelial transportation of catechin from digests across the Caco-2 monolayer; assay type: in vitro ADME, Human; conditions: 4 h; digests diluted 1/5
Protocol: The in vitro gastrointestinal digestion was simulated regarding the procedures of Ozkan et al. and Sessa et al., with minor modifications. This assay involves two sequential stages: gastric digestion and bile salt/pancreatin digestion. For the gastric digestion, the samples containing 1.3 mg/mL final concentration of pepsin at pH 2 were placed in a water bath (GFL 1092, Burgwedel, Germany) at 37 °C and 100 rpm for a 2 h incubation period. To simulate intestinal digestion, gastric chyme was mixed with 0.175 mg/mL pancreatin and 1.10 mg/mL bile salts at pH 6.5, and then placed in a water bath at 37 °C and 100 rpm for 2 h incubation. […]
The transport trial was carried out based on Wu et al.. […] TEER values of the cells were determined before the experiment, after the last sampling and 24 h after the incubation period. […]
The quantification of phenolic compounds in rosehip infusions was conducted by UPLC based on Ozkan et al., with minor changes. Digests obtained from apical and basolateral sides were analyzed by a Waters Acquity UPLC system (Waters Co., Milford, MA, USA) combined with a diode array detector (DAD). […] Catechin concentration was determined by using its authentic standard. […] The results were expressed as mg catechin per 100 g dw (dry weight) of rosehip. […]

[6] = cited from earlier work
[7] = test system: cellular monolayer; design: method as in doi:10.1021/acsomega.8b03499; conditions: sweet cherry phenolics; cited from earlier work
[8] = design: method as in PMID 24191680; conditions: sour cherry fruit and nectar samples, depending on ingredients and processing; cited from earlier work
[9] = design: method as in doi:10.1016/j.jff.2018.10.025; conditions: rats; after 6 h; cited from earlier work
[10] = design: method as in Rodríguez-Roque et al. [11]; conditions: fruit juice blends, traditional thermal treatment; ref Rodríguez-Roque et al. [11]; cited from earlier work

O.Oc1cc(O)c2c(c1)O[C@H](c1ccc(O)c(O)c1)[C@@H](O)C2 [catechin, Catechin]
maximum concentration in plasma [1]: 120 ± 3.97 ng/mL
permeation across the intestinal tissue [2]: 12.5 µg
maximum plasma catechin level ([3]; sour mangosteen rind): 1.10 µg/mL
catechin lost after gastrointestinal digestion [4]: 51.8–61.0%
Apical Recovery (%) of catechin [5]: 68–69%

O=C(O[C@@H]1Cc2c(O)cc(O)cc2O[C@@H]1c1ccc(O)c(O)c1)c1cc(O)c(O)c(O)c1 [epicatechin gallate]
amounts in plasma with chocolate food matrix ([6]; five healthy 22-year-old women): reduced
form detected in plasma ([6]; five healthy 22-year-old women): aglycon form

Oc1cc(O)c2c(c1)O[C@H](c1ccc(O)c(O)c1)[C@H](O)C2 [epicatechin]
quantity that crossed the cell monolayer [7]: 0.37%
maximum plasma epicatechin concentration ([3]; sour mangosteen peel): 62.03 µg/mL
basolateral side recovery [8]: 1.1–3.8%
amounts in plasma with chocolate food matrix ([6]; five healthy 22-year-old women): no alteration
form detected in plasma ([6]; five healthy 22-year-old women): conjugated metabolites

O=C(O[C@@H]1Cc2c(O)cc(O)cc2O[C@@H]1c1cc(O)c(O)c(O)c1)c1cc(O)c(O)c(O)c1 [epigallocatechin gallate]
amounts in plasma with chocolate food matrix ([6]; five healthy 22-year-old women): reduced
form detected in plasma ([6]; five healthy 22-year-old women): aglycon form

Oc1cc(O)c2c(c1)O[C@H](c1cc(O)c(O)c(O)c1)[C@H](O)C2 [epigallocatechin]
amounts in plasma with chocolate food matrix ([6]; in vivo): no alteration
form detected in plasma ([6]; in vivo): conjugated metabolites

Oc1cc(O)c2c(c1)OC(c1ccc(O)c(O)c1)C(O)C2 (stereo not drawn) [free catechin]
bioavailability (plasma catechin values) [9]: 0.241 µM·h

O=C1O[C@H]([C@@H](O)CO)C(O)=C1O [vitamin C]
bioaccessibility [10]: 11.1%
